US5015661A, “Chromanes and their pharmaceutical compositions and methods” (Hoffmann-La Roche Inc., priority 1989, dated 1991)

What follows are compounds tested against superoxide-dependent, iron-promoted lipid peroxidation of native rat heart cardiac lipid liposomes (assay: Lipid peroxidation inhibition (in vitro testing of antiperoxidative agents, ANTI-OX), hypoxanthine-xanthine oxidase-Fe3+.ADP, rat cardiac liposomes, MDA equivalents). Details: 60 min, 37° C., screened at 1.0 μM, IC50 determined if inhibition ≥ 50%, read-out: ANTI-OX IC-50.
Format: biochemical
Protocol: The test system employs hypoxanthine-xanthine oxidase (XO)-Fe^3+. ADP as the free radical generator and purified, native rat-heart membrane phosphoglyceride in Hepes-KCl buffer, pH 7.4, as the substrate. Inhibition of superoxide-dependent, iron-promoted lipid peroxidation in the linear reaction phase (after 1 hour of reaction) is measured as the net formation of thiobarbituric acid (TBA)-reactive material. In this system, the TBA-reactive material, isolated by HPLC, is exclusively (>95%) malondialdehyde (MDA), a fragmentation end-product arising from fatty acyl hydroperoxides and cyclic endoperoxides. […]
a) Isolation and purification of Rat Cardiac Lipid
Conscious male Sprague-Dawley rats (~275g) maintained on a normal rodent diet were decapitated. The hearts were rapidly removed and perfused via the aorta with ice-cold 10 mM Hepes buffer, pH 7.4. The aorta and atria were removed, and the ventricular tissue was blotted and weighed (wet weight). The hearts were minced on ice with scissors and finally homogenized (100 mg tissue/ml ice-cold buffer) for 15 seconds (3×5 seconds) with a Tekmar Tissumizer at "maximal" setting. The homogenate was filtered through 4-ply cheesecloth, and homogenate lipids were extracted and purified by a modified Bligh-Dyer procedure (M.D. Marshall and M. Kates, Biochem. Biophys. Acta 260, 558 (1972). The cardiac lipids were stored in CHCl3 under nitrogen at -20° C. […]
b) Preparation of Cardiac Liposomes
Liposomes were prepared from extracted and purified, native rat heart cardiac lipid and were used as substrate for free-radical attack. Cardiac lipid (in CHCl3) was placed in a glass flask and evaporated to dryness under nitrogen at room temperature; the flask was gently rotated during evaporation to yield a thin, dry lipid film. The lipid was taken up in 10 mM Hepes-0.145M KCl, pH 7.4, and was resuspended by indirect an aerobic sonification for 15 minutes at room temperature. The liposome suspension was used immediately. […]
c) preparation of Fe^3+ -ADP Chelate
A chelate was formed in Hepes-KCl buffer between Fe^3+ (1.0mM FeCl3, final concentration) and ADP (10mM, final concentration) at pH 7.4 with stirring at room temperature. Chelation was allowed to proceed for 90 minutes prior to use. The chelate was prepared fresh for each days experiments to ensure iron solubility, effective chelation, and valence state. […]
d) Thiobarbituric Acid Reaction or Determination of Malondialdehvde Equivalents Malondialdehyde (MDA) equivalents were measured as thiobarbituric acid (TBA)-reactive material by the following modification of published methods. The reaction mixture. prepared fresh daily, contained water: BHT ([…] BHT in absolute ethanol): TBA (1.5% TBA in 0.2M Tris, pH 7.0) in the volume ratio 1:1:5. To each 1.0 ml of peroxidation reaction assayed (see below), 0.35 ml reaction mixture was added. After thorough mixing, the tubes were incubated in an 80° C. shaking water bath for 30 minutes. After this time, the tubes were plunged into an ice water bath, and the reaction was immediately stopped with 0.5 ml ice-cold 91% TCA followed by 2.0 ml CHCl3 After centrifugation for 30 minutes at 2000 rpm in a Sorval HL-8 rotor (4° C.), the absorbance of the washed, pink upper phase was read at 532 nm. A standard curve (0.8-40.0 nmol MDA) was run with every assay. For each curve, MDA was freshly prepared by acidification of 1,1,3,3 -tetraethoxypropane with 75% TCA-2.3N HCl (0.15 ml acid mixture with 1.0 ml suitably diluted tetraethoxypropane). Computer-assisted regression analysis of the standard curve was used to quantify the molar amounts of MDA equivalents in the experimental samples. […]
e) Lipid peroxidation Reaction
Cardiac liposomes were subjected to superoxidedependent. iron-promoted peroxidation in glass vessels to avoid the well-known antioxidant effects of many common polymerizing agents used to fabricate plastic labware. […]
For Cc1c(C)c2c(c(C)c1O)CCC(C)(C#Cc1ccccc1)O2 (racemic) [Example 1, rac-3,4-Dihydro-2,5,7,8-tetramethyl-2-(phenylethynyl)-2H-1-benzopyran-6-ol], the IC50 was 650 nM.
Work on Cc1c(C)c2c(c(C)c1O)CCC(C)(C#Cc1cccs1)O2 (racemic) [Example 4, rac-3,4-Dihydro-2,5,7,8-tetramethyl-2-[(2-thienyl)ethynyl]-2H-1-benzopyran-6-ol] yielded an IC50 of 900 nM.
Cc1c(C)c2c(c(C)c1O)CCC(C)(C#Cc1cccnc1)O2 (racemic) [Example 14, rac-3,4-Dihydro-2,5,7,8-tetramethyl-2-[(3-pyridinyl)ethynyl]-2H-1-benzopyran-6-ol] gave an IC50 of 600 nM.
With Cc1c(C)c2c(c(C)c1O)CCC(C)(C#Cc1ccccn1)O2 (racemic) [Example 15, rac-3,4-Dihydro-2,5,7,8-tetramethyl1-2-[(2-pyridinyl)ethynyl]-2H-1-benzopyran-6-ol] the IC50 was greater than 1000 nM.
With Cc1c(C)c2c(c(C)c1O)CCC(C)(C#Cc1csc3ccccc13)O2 (racemic) [Example 16, rac-[2-(Benzo[b]thiophen-3-yl)ethynyl]-3.4-dihydro-2,5,7,8-tetramethyl-2H-1-benzopyran-2H-1-benzopyran-6-ol] the IC50 was 560 nM.
Work on COc1ccc(C#CC2(C)CCc3c(C)c(O)c(C)c(C)c3O2)cc1OC(C)=O (racemic) [Example 20, rac-2-[(3-Acetyloxy-4-methoxyphenyl)ethynyl]-3.4-dihydro-2,5,7,8-tetramethyl-2H-1-benzopyran-6-ol] yielded an IC50 greater than 1000 nM.
Compound COc1cccc(C#CC2(C)CCc3c(C)c(O)c(C)c(C)c3O2)c1 (racemic) [Example 22, rac-3,4-Dihydro-2-(3-methoxyphenyl)ethynyl)-2,5,7,8-tetra-methyl-2H-1-benzopyran-6-ol] has an IC50 greater than 1000 nM.
COC(=O)c1cc(C#CC2(C)CCc3c(C)c(O)c(C)c(C)c3O2)ccc1O (racemic) [Example 23, rac-5-(3,4-Dihydro-6-hydroxy-2,5,7,8-tetramethyl-2H-1-benzopyran-2-yl)ethynyl]-2-hydroxybenzoic acid methyl ester] gave an IC50 of 900 nM.
With Cc1c(C)c2c(c(C)c1O)CCC(C)(C#Cc1ccc(-c3cccnc3)cc1)O2 (racemic) [Example 24, rac-3,4-Dihydro-2,5,7,8-tetramethyl-2-{[4-(3-pyridinyl)-phenyl]ethynyl}-2H-1-benzopyran-6-ol] the IC50 was 800 nM.
Cc1c(C)c2c(c(C)c1O)CCC(C)(C#Cc1ccc(-c3ccccn3)s1)O2 (racemic) [Example 26, rac-3,4-Dihydro-2,5,7,8-tetramethyl-2-{[5-(2-pyridinyl)-2-thienyl]ethynyl}-2H-1-benzopyran-6-ol] was tested, and the IC50 was 550 nM.
For COc1cc(C=O)cc(C#CC2(C)CCc3c(C)c(O)c(C)c(C)c3O2)c1O (racemic) [Example 28, rac-3-[(3,4-Dihydro-6-hydroxy-2,5,7,8-tetramethyl-2H-1-benzopyran-2-yl)ethynyl]-4-hydroxy-5-methoxybenzaldehyde], the IC50 was greater than 1000 nM.
COc1cc(CO)cc(C#CC2(C)CCc3c(C)c(O)c(C)c(C)c3O2)c1O (racemic) [Example 29, rac-3-[(3,4-Dihydro-6-hydroxy-2,5,7,8-tetramethyl-2H-1-benzopyran-2-yl)ethynyl]-4-hydroxy-5-methoxybenzenemethanol] showed an IC50 greater than 1000 nM.
For COc1cc(C=NO)cc(C#CC2(C)CCc3c(C)c(O)c(C)c(C)c3O2)c1O (racemic) [Example 30, rac-3-[(3,4-Dihydro-6-hydroxy-2,5,7,8-tetramethyl-2H-1-benzopyran-2yl)ethynyl]-4-hydroxy-5-methoxybenzaldehydeoxime], the IC50 was greater than 1000 nM.
Work on CCCCc1ccc(C#CC2(C)CCc3c(C)c(O)c(C)c(C)c3O2)s1 (racemic) [Example 31, rac-2-[(5-Butyl-2-thienyl)ethynyl]-3,4-dihydro-2,5,7,8-tetramethyl-2H-1-benzopyran-6-ol] yielded an IC50 of 550 nM.
Compound Cc1c(C)c2c(c(C)c1O)CCC(C)(C#Cc1cnc3ccccc3c1)O2 (racemic) [Example 33, rac-3,4-Dihydro-2,5,7,8-tetramethyl-2-(3-quinolinylethynyl)-2H-1-benzopyran-6-ol] has an IC50 of 850 nM.
In the case of Cc1c(C)c2c(c(C)c1O)CCC(C)(C#Cc1cncc3ccccc13)O2 (racemic) [Example 34, rac-3,4-Dihydro-2-[(4-isoquinolinyl)ethynyl]-2,5,7,8-tetramethyl-2H-1-benzopyran-6-ol], the IC50 is reported as greater than 1000 nM.
Cc1c(C)c2c(c(C)c1O)CCC(C)(C#Cc1cccc(C(F)(F)F)c1)O2 (racemic) [Example 35, rac-2-{[3-(Trifluoromethyl)phenyl]ethynyl-3,4-dihydro-2,5,7,8-tetramethyl-2H-1-benzopyran-6-ol] gave an IC50 of 800 nM.
Compound Cc1c(C)c2c(c(C)c1O)CCC(C)(C#Cc1ccc(F)c(F)c1)O2 (racemic) [Example 36, rac-2-[(3,4-Difluorophenyl)ethynyl]-3,4-dihydro-2,5,7,8-tetramethyl-2H-1-benzopyran-6-ol] has an IC50 greater than 1000 nM.
Work on Cc1c(C)c2c(c(C)c1O)CCC(C)(C#Cc1cccc3ccccc13)O2 (racemic) [Example 39, rac-3,4-Dihydro-2,5,7,8-tetramethyl-2-(1-naphthyl)ethynyl-2H-1-benzopyran-6-ol] yielded an IC50 greater than 1000 nM.
With Cc1c(C)c2c(c(C)c1O)CCC(C)(C#Cc1ccccc1N)O2 (racemic) [Example 40, rac-2-[(2-Aminophenyl)ethynyl]-3,4-dihydro-2,5,7,8-tetramethyl-2H-1-benzopyran-6-ol] the IC50 was greater than 1000 nM.
Work on CC(=O)Oc1cc(C#CC2(C)CCc3c(C)c(O)c(C)c(C)c3O2)ccc1OCc1ccccc1 (racemic) [Example 41, rac-2-{[3-Acetyloxy-4-(phenylmethoxy)phenyl]ethynyl}-3,4-dihydro-2,5,7,8-tetramethyl-2H-1-benzopyran-6-ol] yielded an IC50 of 480 nM.
With Cc1c(C)c2c(c(C)c1O)CCC(C)(C#Cc1ccc(OCc3ccccc3)c(O)c1)O2 (racemic) [Example 43, rac-3,4-Dihydro-2-{[3-hydroxy-4-(phenylmethoxY)phenyl]-ethynyl}-2,5,7,8-tetramethyl-2H-1-benzopyran-6-ol] the IC50 was 370 nM.
With Cc1c(C)c2c(c(C)c1O)CCC(C)(C#Cc1ccccc1O)O2 (racemic) [Example 50 (2-HO-phenyl), rac-3,4-Dihydro-2-[(2-hydroxyphenyl)ethynyl]-2,5,7,8-tetramethyl-2H-1-benzopyran-6-ol] the IC50 was 700 nM.
Work on Cc1c(C)c2c(c(C)c1O)CCC(C)(c1cc3ccccc3o1)O2 (racemic) [Example 50 (CH; H, H, H), rac-2-(2-Benzofuranyl)-3,4-dihydro-2,5,7,8-tetramethyl-2H-1-benzopyran-6-ol] yielded an IC50 of 1000 nM.
Cc1ccc2oc(C3(C)CCc4c(C)c(O)c(C)c(C)c4O3)cc2n1 (racemic) [Example 51, rac-3,4-Dihydro-2-(5-methylfuro[3,2[b]pyridin-2-yl)-2,5,7,8-tetramethyl-2H-1-benzopyran-6ol] gave an IC50 greater than 1000 nM.
With Cc1c(C)c2c(c(C)c1O)CCC(C)(c1cc3ncccc3o1)O2 (racemic) [Example 52, rac-3,4-Dihydro-2-(furo[3,2-b]pyridine-2-yl)-2,5,7,8-tetramethyl-2H-1-benzopyran-6-ol] the IC50 was 950 nM.
CCCc1c(O)c(C(C)=O)cc2cc(C3(C)CCc4c(C)c(O)c(C)c(C)c4O3)oc12 (racemic) [Example 53, rac-1-2-(3,4-Dihydro-6-hydroxy-2,5,7,8-tetramethyl-2H-1-benzopyran-2-yl)-6-hydroxy-7-propylbenzofuran-5-yl]ethanone] was tested, and the IC50 was 600 nM.
